The values that follow come from the METLIN SMRT retention time set (Domingo-Almenara et al. 2019).

This data set can be described thus: gradient 5% acetonitrile 3 min, to 50% in 2 min, to 85% in 15 min, held 3 min, 100 µL/min. As to conditions: column: Zorbax Extend-C18 2.1 x 50 mm; eluents: water / acetonitrile, 0.1% formic acid. The essentials: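 Retention times come from adduct peaks that were picked computationally and then checked by hand. The standards, pure and pooled in mixtures of ~100 molecules, were run on a Zorbax Extend-C18 column (2.1 × 50 mm, 1.8 μm) at 100 μL/min with water and acetonitrile, each with 0.1% formic acid. Detection was by quadrupole time-of-flight mass spectrometry in positive and negative ionization mode, with a dead volume of 40 μL and a dwell volume of 900 μL.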
Molecule `COc1ccc(-n2nc(C(=O)Nc3ccc4c(c3)OCCO4)c(=O)cc2OC)cc1` registered an RP-LC retention time of 758 s.
For `CCOC(=O)c1c(C)[nH]c(C)c1S(=O)(=O)NCCCN1CCc2ccccc2C1` the value was 651 s; for `O=C1C2C=CC=CC2=NC(=S)N1CCN1CCC(=C(c2ccc(F)cc2)c2ccc(F)cc2)CC1` (stereo not given), 1000 s; for `COc1ccc(N2CCN(S(=O)(=O)N(C)C)CC2)cc1`, 736 s.
For `CSc1ncn(-c2nc(NC(C)C)nc(N(C)C)n2)n1` the value was 874 s; for `C=CCN1C(=O)COc2ccc(-c3nc(NC(=O)C4CCCCC4)sc3C)cc21`, 1080 s; for `COc1cccc(-c2noc(C3CCCN3C(=O)C3CCC3)n2)c1` (stereo not given), 912 s.
For `CC(=O)NCc1ccc(-c2noc(Cc3c(F)cccc3Cl)n2)s1` the value was 834 s; for `O=C(CN1C(=O)C(C(=O)N2CCCCC2)Sc2ccccc21)N1CCN(c2ccccc2F)CC1` (stereo not given), 960 s; for `CCOC(=O)c1c(S(=O)(=O)N2CCC(C(=O)Nc3ccccc3)CC2)c(C)n(C)c1C`, 834 s.
Take `O=S(=O)(Nc1ccc(Cl)cc1)c1ccc2nncn2c1`: the RP-LC retention time turned out to be 712 s.
The result for `O=C(c1cc(C2CC2)[nH]n1)N1CCC(F)(F)C(COCC2CC2)C1` (stereo not given) reads 805 s.
With `Cc1cc(C)cc(NC(=O)c2csc(-c3cn(C)c4ncccc34)n2)c1`, the RP-LC retention time stood at 1050 s.
For `Cc1ccc(CC(=O)Nc2cc(-c3cccs3)no2)cc1` the value was 993 s; for `COc1ccc(C2=C(C)C(Nc3ccccc3OC)=NS2(=O)=O)cc1`, 925 s.
The result for `COC(=O)c1ccccc1S(=O)(=O)Nc1ccc2c(c1)CCC(=O)N2C` reads 748 s; that for `O=C(c1nnc(-c2ccc(S(=O)(=O)N3CCCC3)cc2)o1)N1CCc2ccccc2C1`, 980 s; that for `CCCC(=O)Nc1ccc2c(c1)nc(CN1CCCC1)n2C(C)C`, 586 s.
The result for `CCc1nc2cc(N3CCC(C(=O)NCc4ccc5c(c4)OCO5)CC3)cnc2nc1CC` reads 799 s.
In the case of `Cn1nc(CNC(=O)c2ccc(F)c(F)c2)c2ccccc21`, the RP-LC retention time is 813 s.
For `CNC(=O)c1cc(N2CCCC2)nc2c(Cl)cccc12` the value was 620 s; for `CCc1nc2cc(-c3noc(-c4cccs4)n3)ccc2o1`, 1080 s; for `COC(=O)CCCC(=O)Nc1ccc2[nH]c(=O)oc2c1`, 608 s.
The molecule `O=C(NCCc1c[nH]c2ccccc12)c1cc(-c2cccnc2)nc2ccccc12` had an RP-LC retention time of 741 s.
`CC(C)(C)c1cc(C(=O)NCc2ccccc2)nc2ccnn12`: the RP-LC retention time worked out at 1140 s.
The result for `COc1ccc(C(O)CN2CCN(c3cccc(C)c3)CC2)cc1` (stereo not given) reads 671 s.
The result for `CCN1CCN(c2nc(F)c3c(c2F)S(=O)(=O)CCN3CC2CCCO2)CC1` (stereo not given) reads 596 s; that for `Cc1nccn1C1CN(S(=O)(=O)c2cccc3cccnc23)C1`, 571 s; that for `Cc1nc2ccn(Cc3cccnc3)c(=O)c2cc1C(=O)NCCCc1ccco1`, 625 s.
The result for `O=C(NCc1ccc(F)cc1)N1CCC(c2noc(-c3cnccn3)n2)C1` (stereo not given) reads 705 s; that for `Cc1ccccc1NC(=O)N1CCCC(Cn2cnc3cccnc32)C1` (stereo not given), 659 s.
As to `Cc1cccc2nnc(N3CCN(C(=O)c4ccc(Cl)s4)CC3)n12`, the RP-LC retention time came to 701 s.
For `O=C(NCc1ccc(F)cc1)N1CCN(c2nc3ccccc3nc2C(F)(F)F)CC1` the value was 1010 s; for `Cc1cc(C(=O)Nc2ccc3c(c2)CCC(=O)N3C)no1`, 686 s.
The molecule `Cn1nnc2c(N3CCN(C(=O)Nc4ccccc4C#N)CC3)ncnc21` gave an RP-LC retention time of 626 s.
`O=C(NCCO)C(=O)NCC1(c2ccccc2)CCCC1`: the RP-LC retention time was 715 s.
With `Cc1ccc(NC(=O)C(C)C2CCN(C(=O)Nc3ccccc3)CC2)cc1` (stereo not given), the RP-LC retention time stood at 860 s.
For `CC(C)n1c(=O)c(NCc2ccc(F)cc2)nc2ccncc21` the value was 669 s; for `COc1cccc(CNC(=O)c2nc(N3CCOCC3)c3c(C)cc(C)nc3n2)c1`, 625 s.
The result for `CCOc1ccc(NC(=O)N2C[C@H]3C[C@H](C2)[C@H]2CCCC(=O)N2C3)cc1` reads 654 s; that for `Cc1ccc(Cn2nc3c(S(=O)(=O)N4CCCCC4)cccn3c2=O)c(C)c1`, 967 s.
The result for `Cc1cccc2nnc(N3CCN(C(=O)c4ccc(Cl)cc4)CC3)n12` reads 629 s; that for `CSc1ccc(CNC(=O)Cn2ccc3ccc(N4CCOCC4)nc32)cc1`, 958 s; that for `COc1ccccc1-n1cc(-c2ccccc2)c2c(NCCN(C)C)ncnc21`, 695 s.
`O=C(NCC1CCN(C(=O)Oc2ccccc2)CC1)C1c2ccccc2Oc2ccccc21`: the RP-LC retention time was 949 s.
The result for `O=C1C2N=NN(Cc3nc(-c4ccc5c(c4)OCO5)no3)C2C(=O)N1c1ccc2c(c1)CCC2` (stereo not given) reads 1000 s.
For `Cc1cc2c(=O)n(CC(=O)NCc3ccc(F)cc3)ccc2s1` the value was 751 s.
`CCOc1ccc(-c2cc3c(=O)n(Cc4nc(-c5ccc(F)c(Cl)c5)no4)ncn3n2)cc1` yielded an RP-LC retention time of 982 s.
For `CCOC(=O)c1cc(S(=O)(=O)N2CCCC2C(=O)Nc2cc(Cl)c(OC)cc2OC)cn1C` (stereo not given) the value was 1010 s; for `CN(Cc1nc2ccccc2n1CC(=O)N1CCOCC1)C(=O)c1ccco1`, 587 s.
For `CSc1ccc(-c2nc3cnccn3c2Nc2cccc(Cl)c2C)cc1` the value was 1060 s.
For `Cc1noc(C)c1CN1CCN(C(=O)c2ccc3ccccc3n2)CC1` the value was 588 s; for `COc1ccc(Cl)cc1NC(=O)N1CCC2(CC1)N=C(c1cccc(F)c1)C(=O)N2`, 882 s; for `COc1cc(NC(=O)CN2C(=O)CCc3cc(Br)ccc32)cc(OC)c1OC`, 820 s.
In turn, `O=C(c1ccc[nH]c1=O)N1CCC(Cn2c(COc3ccccc3)nc3ccccc32)CC1` returned an RP-LC retention time of 556 s.
For `CN1c2cc(Cl)ccc2C(=O)NC12CCN(C(=O)Nc1ccccc1)CC2` the value was 795 s.
For `CCOc1ccccc1-c1noc(Cn2c(=O)n(Cc3ccc(F)cc3)c(=O)c3sccc32)n1` the value was 1100 s.
For `O=C1CCc2cc(OCCCCc3nnnn3C3CCCCC3)ccc2N1` the value was 880 s; for `CCNC(=O)c1cc2cc(Cl)ccc2[nH]1`, 806 s; for `COC(=O)c1c(C)sc(-c2c(-c3ccc(Br)cc3)[nH]c3[nH]c(=O)[nH]c(=O)c23)c1O`, 791 s.
`CC(C)CNC(=O)CCn1c(=O)c2ccccc2n2c(=O)n(Cc3ccccc3)nc12` displayed an RP-LC retention time of 882 s.
The result for `O=C(Nc1ccc(N2CCOCC2)cc1)C1=CCN(Cc2ccc(F)cc2)CC1` reads 603 s; that for `CCN1CCN(C(=O)c2nc(N3CCSCC3)c3cnn(C)c3n2)CC1`, 604 s.
The molecule `Cc1nc2sc(C)c(C)n2c(=O)c1NC(=O)c1ccc(Br)o1` showed an RP-LC retention time of 688 s.
For `O=S(=O)(c1ccc(Cl)c(-c2nnc(-c3ccccc3)o2)c1)N1CCCC1` the value was 1040 s; for `COc1ccc(S(=O)(=O)N2CCCC(C(=O)NCCCOC(C)C)C2)cc1C` (stereo not given), 877 s.
The result for `COc1ccc(N2C(=O)c3cc(C)nn3CC2(C)C(=O)NCc2ccc(F)cc2)cc1` (stereo not given) reads 770 s; that for `CCOc1ccc(N2CC(c3nc(-c4ccc(C)cc4)no3)CC2=O)cc1` (stereo not given), 1090 s.
Take `CC(=O)NCC(=O)N1CC(F)(F)C[C@H]1c1nc(C2CC2)no1`: the RP-LC retention time worked out at 639 s.
The result for `CCCCc1ccc(NC(=O)Cn2nc3c(Sc4ccccc4)nccn3c2=O)cc1` reads 1100 s; that for `CS(=O)(=O)c1cccc(CNc2nc(Nc3ccc4c(c3)CCC(=O)N4)ncc2C(F)(F)F)c1`, 737 s.
With `Cc1cc(F)ccc1NC(=O)c1cc2n(n1)CC(C)(C(=O)NC1CCCCC1)N(C)C2=O` (stereo not given), the RP-LC retention time was 776 s.
The result for `O=C(Nc1ccc(Cl)cc1F)c1cc(C2CC2)on1` reads 1090 s; that for `COCCNC(=O)c1sc2c(cnc3cc4c(cc32)OCO4)c1-c1ccccc1`, 732 s; that for `COc1ccc(NC(=O)NC2CCN(c3ccc(C)c(C)c3)C2=O)cc1F` (stereo not given), 800 s.
The result for `CCc1noc(NC(C)=O)c1-c1ccc(C)c(S(=O)(=O)Nc2cc(OC)cc(OC)c2)c1` reads 854 s.
In turn, `Cc1nnc(-c2cc(NS(C)(=O)=O)c(C)s2)o1` registered an RP-LC retention time of 697 s.
For `CCCSCCCNc1nc(-c2nnc(-c3ccc(C)cc3)o2)nc2ccccc12` the value was 1160 s; for `CCCN1C(=O)Cc2ccccc2C1C(=O)NCc1ccccc1Br` (stereo not given), 831 s; for `CNC(=O)c1nc(C(=O)NCCc2ccc(Cl)cc2)cs1`, 771 s.
